According to patent US20090318502A1, “Pharmaceutical Compositions Comprising a Hypoglycemic Agent and Methods of Using Same” (INTRANASAL THERAPEUTICS, INC., priority 2006, published 2009):

Columns and labels:
[1] = Storage stability and appearance of intranasal repaglinide formulations; type: physicochemical; details: solution pH
Experimental: In one embodiment, a composition of the invention comprises at least 85%, at least 87%, at least 90%, at least 92%, at least 95%, at least 97%, or at least 99% of the original hypoglycemic agent (e.g., repaglinide) after storage (closed or open vessel) at 40° C. and 75% relative humidity for a period of at least 1 week, at least 2 weeks, at least 3 weeks, at least 4 weeks, at least 6 weeks, at least 8 weeks, at least 10 weeks, at least 15 weeks, at least 20 weeks, at least 25 weeks, at least 30 weeks, at least 35 weeks, at least 40 weeks, at least 45 weeks, or at least 50 weeks The formulations described in Table 1 below have shown good stability for a period of about one month. In particular, the formulations described in Example 1 below have shown no precipitation and have remained clear and colorless for a period of about one month.

[2] = Solubility of repaglinide in formulation vehicles; type: physicochemical; details: in 100% methoxy-polyethylene glycol, 350

- pH of solutions in which repaglinide was often more stable [1]: less than or equal to 9
- solubility of repaglinide [2]: poorly soluble or insoluble
SMILES: CCOc1cc(CC(=O)N[C@@H](CC(C)C)c2ccccc2N2CCCCC2)ccc1C(=O)O [repaglinide, Repaglinide]
